Measurements published in patent US20120076811A1 (priority 2009, published 2012).
Entries after “also recorded” stand apart in the source; their conditions may differ.

Columns and labels:
[1] = system: lymphoid cells from H5N1-rHA1 immunized DR1 transgenic mice; format: cell-based, mouse
[2] = system: lymphoid cells from H5N1-rHA1 immunized DR1 transgenic mice; format: cell-based, mouse; remark: listed apart in the source
[3] = system: lymphoid cells from H5N1-rHA1 immunized DR1 transgenic mice; format: cell-based, mouse; remark: listed apart in the source
[4] = system: lymphoid cells from rHA1 immunized DR1 transgenic mice; format: cell-based, mouse
[5] = system: lymphoid cells from type II collagen immunized DR1 transgenic mice; format: cell-based, mouse
[6] = target: CD4+ CD44+ cells from CFA only immunized DR1 transgenic mice (T cell receptors on cells)
[7] = target: HA259-274 specific CD4+ T cells from DR1 transgenic mice immunized with H5N1-rHA1 protein/CFA (T cel)
[8] = target: HA259-274 specific CD4+ T cells from DR1 transgenic mice immunized with H5N1-rHA1 protein/CFA (T cel); remark: listed apart in the source

KMRMATPLLMQALPM [CLIP89-105]
IFN-γ production in culture supernatant [1]: not | proliferation response ([3H]thymidine incorporation) [2]: not

SNGNFIAPEYAYKIVK [HA259-274]
IFN-γ production in culture supernatant [1]: positive cytokine production | proliferation response ([3H]thymidine incorporation) [2]: Strong dose dependent proliferation responses | IL-2 production in culture supernatant [3]: positive cytokine production

PKYVKQNTLKLAT [HA306-318]
proliferative response ([3H]thymidine incorporation) [4]: Strong dose dependent responses

AGFKGEQGPKGEPGP [CII280-294]
proliferative response ([3H]thymidine incorporation) [5]: Strong dose dependent responses

HA259-274/DR1 tetramers (from UniProt P01903 26-216) (peptide-MHC)
tetramer positive cells [6]: 0.01% | tetramer positive population (% of the CD4+ CD44+ cells) [7]: 0.1 | fold increased staining against control CLIP/DR1 tetramers [8]: 30 fold | tetramer positive population [8]: 3%

INSSLPYQNIHPVTIGECPKY [HA298-317]
proliferative response ([3H]thymidine incorporation) [4]: significantly lower; also recorded: no response
